According to ChEMBL document CHEMBL1151292, “Antineoplastic activity and cytotoxicity of flavones, isoflavones, and flavanones” (1979):
In brackets after ≈: the same amount, converted by molar mass. Activity calls are given as the source filed them.

How the values were obtained:
[1] = tested on: CCRF S-180; experiment: In vivo antitumor activity against mouse S180 cells; type: functional, organism-based
[2] = tested on: L1210; experiment: In vivo antitumor activity against mouse L1210 cells; type: functional, organism-based
[3] = tested on: KB; experiment: Cytotoxicity against human KB cells; type: functional; conditions: read-out: ED50 (the source's name)
[4] = tested on: FV; experiment: In vivo antitumor activity against mouse FV cells; type: functional, organism-based
[5] = tested on: Walker 256; experiment: In vivo antitumor activity against rat Walker 256 cells; type: functional, organism-based
[6] = tested on: Lewis lung carcinoma cell line; experiment: In vivo antitumor activity against mouse LLC cells; type: functional, organism-based
[7] = tested on: CA-755; experiment: In vivo antitumor activity against mouse CA-755 cells; type: functional, organism-based

| SMILES | Activity [1] | Activity [2] | EC50 [3] [µg/mL] | Activity [4] | Activity [5] | Activity [6] | Activity [7] |
| --- | --- | --- | --- | --- | --- | --- | --- |
| COc1cc(OC)c(-c2oc3ccccc3c(=O)c2O)cc1OC | inactive | inactive | 5 (≈ 15.2 µM) | inactive |  |  |  |
| O=c1c(-c2ccc3c(c2)OCO3)coc2cc(O)ccc12 |  | inactive |  |  | inactive |  |  |
| CCOC1(O)C(=O)c2ccccc2OC1(OCC)c1ccccc1 (stereo not given) |  | inactive |  |  | inactive |  |  |
| O=c1cc(-c2ccccc2)oc2ccc(F)cc12 | inactive |  |  |  |  | inactive |  |
| O=c1cc(-c2ccccc2)oc2ccc(O)cc12 [6-HYDROXYFLAVONE] | inactive |  | 18 (≈ 75.6 µM) |  | inactive | Active |  |
| O=c1c(O)c(-c2ccc(Cl)cc2)oc2ccccc12 |  | inactive |  |  | inactive |  |  |
| COc1c(OC)c(OC)c2c(=O)cc(-c3ccc4c(c3)OCO4)oc2c1OC |  |  |  |  | inactive |  |  |
| COc1c(OC)c(OC)c(-c2cc(=O)c3c(OC)c(OC)c(OC)c(OC)c3o2)c(OC)c1OC |  |  | 4 (≈ 8.12 µM) |  |  | inactive |  |
| O=c1cc(-c2ccccc2)oc2cc(O)ccc12 | inactive | inactive |  |  |  | inactive |  |
| COc1ccc2c(=O)c(C)c(-c3ccccc3)oc2c1 | inactive | inactive | 43 (≈ 161 µM) | Active |  |  |  |
| COc1cc(-c2cc(=O)c3c(OC)c(OC)c(OC)c(OC)c3o2)cc(OC)c1OC [HEPATAMETHOXYFLAVONE] | inactive | inactive | 0.5 (≈ 1.16 µM) |  |  | inactive | inactive |
| COc1ccc2c(c1)C(=O)C(O)(OC)C(OC)(c1ccccc1)O2 (stereo not given) |  | inactive |  |  | inactive |  |  |
| O=c1c(O)c(-c2c(O)cccc2O)oc2ccccc12 | inactive | inactive | > 100 | inactive |  |  |  |
| COc1cc2c(=O)cc(-c3ccc(O)cc3)oc2c(OC)c1OC | inactive |  | 0.7 (≈ 2.13 µM) | Active | Active | inactive |  |
| O=c1cc(-c2ccc(O)cc2)oc2c(O)c(O)c(O)cc12 |  |  | 22 (≈ 76.9 µM) |  | inactive | inactive |  |
| O=C1CC(c2ccc(O)cc2)Oc2cc(O)cc(O)c21 (stereo not given) | inactive | inactive |  |  |  | inactive | inactive |
| Cc1oc2cc(O)ccc2c(=O)c1-c1ccccc1 |  | inactive |  |  | inactive |  |  |
| COc1cc2occ(-c3ccc(O)cc3)c(=O)c2c(OC)c1O |  |  |  | inactive |  |  |  |
| COc1cc(OC)c(-c2cc(=O)c3c(OC)c(OC)c(OC)c(OC)c3o2)cc1OC |  |  | 13 (≈ 30.1 µM) |  | Active | inactive |  |

| SMILES | Activity [1] | Activity [2] | EC50 [3] [µg/mL] | Activity [4] | Activity [5] | Activity [6] | Activity [7] |
| --- | --- | --- | --- | --- | --- | --- | --- |
| COc1ccc(C2(OC)Oc3cc(OC)ccc3C(=O)C2(O)OC)cc1 (stereo not given) |  | inactive |  |  | inactive |  |  |
| O=c1c(O)c(-c2ccc(O)c(O)c2)oc2cc(O)cc(O)c12 [QUERCETIN] |  |  | 25 (≈ 82.7 µM) |  | Active |  |  |
| COC1(O)C(=O)c2ccccc2OC1(OC)c1ccc(C)cc1 (stereo not given) |  | inactive |  |  | inactive |  |  |
| COc1ccc(C2(OC)Oc3ccccc3C(=O)C2(O)O)cc1 (stereo not given) |  | inactive |  |  | inactive |  |  |
| O=C1/C(=N\O)C(c2ccccc2)Oc2ccccc21 (stereo not given) | inactive | inactive | 35 (≈ 138 µM) |  |  |  | inactive |
| O=C1CC(c2ccccc2)Oc2ccccc21 (stereo not given) | inactive | inactive |  | inactive |  |  | inactive |
| COc1ccc(-c2coc3c(OC)c(OC)c(OC)c(OC)c3c2=O)cc1 |  |  |  | Active |  |  |  |
| O=C1c2c(O)cc(O)cc2OC(c2ccc(O)c(O)c2)C1O (stereo not given) [TAXIFOLIN] | inactive |  | 40 (≈ 131 µM) |  | inactive |  | inactive |
| Nc1c(-c2ccccc2)oc2ccc(Cl)cc2c1=O | inactive | inactive | > 100 | inactive |  |  |  |
| COc1ccc(-c2cc(=O)c3c(OC)c(OC)c(OC)c(OC)c3o2)cc1OC [NOBILETIN] |  |  | 3 (≈ 7.46 µM) |  | inactive | inactive |  |
| CCOc1ccc(-c2coc3cc(C)c(OCC)c(C)c3c2=O)cc1 |  |  |  | inactive |  |  |  |
| COc1ccc(-c2cc(=O)c3c(OC)c(OC)c(OC)cc3o2)cc1 | inactive | inactive | 27 (≈ 78.9 µM) |  |  |  | inactive |
| CC(=O)Oc1cc(O)c2c(=O)c(OC(C)=O)c(-c3ccc(OC(C)=O)c(OC(C)=O)c3)oc2c1 | inactive | inactive | 22 (≈ 46.8 µM) |  |  |  | inactive |
| C[C@@H]1O[C@@H](Oc2c(-c3cc(O)c(O)c(O)c3)oc3cc(O)cc(O)c3c2=O)[C@H](O)[C@H](O)[C@H]1O | inactive | inactive | 8.3 (≈ 17.9 µM) |  |  | inactive | inactive |
| COc1ccc(-c2cc(=O)c3ccccc3o2)c(OC)c1OC | inactive | inactive | 13 (≈ 41.6 µM) |  |  | inactive | inactive |
| O=C1c2ccc(O)cc2OC(c2cc(O)c(O)c(O)c2)C1O (stereo not given) [DIHYDROBINETIN] | inactive | inactive | 23 (≈ 75.6 µM) |  |  |  | inactive |
| COc1ccc2c(c1)C(=O)CC(c1ccccc1OC)O2 (stereo not given) | inactive | inactive | 24 (≈ 84.4 µM) |  |  |  | inactive |
| COc1ccc(-c2oc3cc(OC)ccc3c(=O)c2O)cc1 |  | inactive |  |  |  | inactive | inactive |
| O=C1c2ccc(O)cc2OC(c2ccc(O)c(O)c2)C1O (stereo not given) | inactive | inactive |  |  |  | inactive | inactive |

| SMILES | Activity [1] | Activity [2] | EC50 [3] [µg/mL] | Activity [4] | Activity [5] | Activity [6] | Activity [7] |
| --- | --- | --- | --- | --- | --- | --- | --- |
| O=c1cc(-c2ccccc2)oc2cccc(O)c12 [5-HYDROXYFLAVONE] | inactive |  | 20 (≈ 83.9 µM) |  | Active | inactive |  |
| COc1c(OC)c(OC)c2c(=O)cc(-c3ccc(OC(C)=O)cc3)oc2c1OC | inactive |  | 3 (≈ 7.49 µM) |  |  | inactive | inactive |
| Cl.NC1C(=O)c2ccccc2OC1c1ccccc1 (stereo not given) | inactive | inactive | 3 |  |  |  | inactive |
| COc1ccc(-c2cc(=O)c3c(OC)c(OC)c(OC)c(OC)c3o2)c(OC)c1 | inactive |  | 15 (≈ 37.3 µM) |  |  | inactive |  |
| COc1cc(OC)cc(-c2cc(=O)c3c(OC)c(OC)c(OC)c(OC)c3o2)c1 | inactive |  | 3 (≈ 7.46 µM) | Active |  | inactive |  |
| O=c1cc(-c2ccccc2F)oc2ccccc12 | inactive | inactive |  |  |  | inactive |  |
| COc1ccc(-c2oc3ccc(C)cc3c(=O)c2O)cc1 | inactive | inactive | 2 (≈ 7.08 µM) |  |  | inactive | inactive |
| COc1ccc(OC)c(-c2cc(=O)c3c(OC)c(OC)c(OC)c(OC)c3o2)c1 | inactive |  | 4 (≈ 9.94 µM) | Active |  |  |  |
| O=c1c(-c2ccc(O)cc2)coc2cc(O)cc(O)c12 [GENISTEIN] | inactive | inactive | 6.7 (≈ 24.8 µM) |  |  |  | inactive |
| COc1ccccc1-c1cc(=O)c2ccc(OC)c(OC)c2o1 | inactive | inactive | 4 (≈ 12.8 µM) |  |  | inactive | inactive |
| O=c1cc(-c2ccc(F)cc2)oc2ccccc12 | inactive | inactive |  |  |  | inactive |  |
| CCOC(=O)c1oc2cc(O)cc(O)c2c(=O)c1-c1ccc(OC)cc1 | inactive | inactive | 21 (≈ 58.9 µM) |  |  | Active |  |
| COc1ccc2c(=O)c(N(S(C)(=O)=O)S(C)(=O)=O)c(-c3ccccc3)oc2c1CN(C)C | inactive | inactive | > 100 |  |  |  | inactive |
| COc1cc(O)c2c(=O)c(O[C@@H]3O[C@H](CO[C@@H]4O[C@@H](C)[C@H](O)[C@@H](O[C@@H]5O[C@@H](C)[C@H](O)[C@@H](O)[C@H]5O)[C@H]4O)[C@@H](O)[C@H](O)[C@H]3O)c(-c3ccc(O)c(O)c3)oc2c1 | inactive | inactive | 8.5 (≈ 11 µM) |  |  | inactive | inactive |
| O=c1cc(-c2cccc(F)c2)oc2ccccc12 | inactive | inactive |  |  |  | inactive |  |
| O=c1cc(-c2ccccc2)oc2cc(O)cc(O)c12 [CHRYSIN] |  | inactive | 13 (≈ 51.1 µM) |  | inactive |  |  |
| COc1cc(O)c2c(=O)c(OC)c(-c3ccc(OC)c(OC)c3)oc2c1 [RETUSIN] | inactive | inactive | 41 (≈ 114 µM) |  |  |  | inactive |
| C[C@@H]1O[C@@H](OC[C@H]2O[C@@H](Oc3c(-c4ccc(O)c(O)c4)oc4cc(O)cc(O)c4c3=O)[C@H](O)[C@@H](O)[C@@H]2O)[C@H](O)[C@H](O)[C@H]1O | inactive | inactive |  |  | Active | inactive | inactive |
| COc1ccc(-c2coc3cc(OC)c(OC)c(OC)c3c2=O)cc1 | inactive |  | 34 (≈ 99.3 µM) | Active |  |  |  |
